Laboratory results published in patent US10118954B2, “Apelin analogues” (University of Ulster, priority 2014, dated 2018).

Tests used:
[1] = system: high fat fed NIH Swiss mice; test: 28 day long-term study of fatty acid apelin analogues, once daily i.p. administration; type: in vivo
From the text: NIH Swiss mice (Harlan UK Ltd., Blackthorne, UK) were derived from a nucleus colony obtained from the National Institute of Health, Bethesda, Md., USA. One group of mice were maintained on a standard rodent diet (10% fat, 30% protein, 60% carbohydrate; percent of total energy 12.99 kJ/g, Trouw Nutrition, Cheshire, UK) and used as a model of normal glycaemia. Other NIH Swiss mice were maintained on a high fat diet (45% fat, 20% protein, 35% carbohydrate; percent of total energy 26.15 kJ/g; Dietex, Essex, UK) from 8 weeks of age for 150 days to produce a model of diet induced obesity-diabetes. […] All mice were housed in an air-conditioned room maintained at 22±2° C. with a 12 h light: 12 h dark cycle (08:00-20:00 h), were singly caged, and selected for experimental groups according to body weight and non-fasted blood glucose. Drinking water and diet were freely available. All animal studies were performed in accordance with the UK Animals (Scientific Procedures) Act 1986.
For another 28 day long-term study of selected fatty acid apelin analogues administered once daily, normal control NIH Swiss (n=8) and high-fat fed NIH Swiss (n=8) were grouped and received once daily i.p. injections of saline vehicle (0.9% NaCl (w/v)) at 17:00 h over a 4 day run-in period. Following the run-in period, normal control (n=8) and high-fat fed mice (n=8) received once daily (17:00 h) i.p. administration of saline vehicle (0.9% NaCl (w/v)) for 28 days. Additional groups of high-fat fed mice (n=8) received once daily i.p. injections of (Lys^8gluPal)apelin-13-amide, pGlu(Lys^8gluPal)apelin-13-amide or liraglutide (each at 25 nmol/kg bw) over a 28 day treatment period.
Food intake, body weight, blood glucose and plasma insulin were monitored at intervals of 2-3 days throughout the run-in and 28 day treatment period. Blood samples for glucose and plasma insulin measurement were collected at intervals throughout the study from the cut tail vein of conscious mice. Following the 28 day treatment period, oral, i.p. and meal test glucose tolerance ([…].), and insulin sensitivity (25 U/kg bw) tests were performed. Glucose was measured using an Ascensia Contour meter and blood was collected and processed for plasma insulin analysis by radioimmunoassay. Body weight and fat mass was also assessed using the PIXImus DEXA scanner whilst energy expenditure, intake, food intake and feeding bouts were assessed using the CLAMS metabolic chamber. HbA1c was analysed post 28 days using Bayer A1C Now^+ Multi Test meter. Lipid profile test was obtained by using the iLab analyser. Cholesterol, triglyceride and HDL-cholesterol levels were measured, in plasma (3 μl), using the iLab analyser. LDL-cholesterol levels were obtained using the Friedewald equation=total cholesterol−HDL−(triglycerides/3).

[2] = system: NIH Swiss mice fed a high-fat diet for 150 days; test: Acute and delayed i.p. glucose tolerance test, blood glucose and plasma insulin; type: in vivo
Method: Plasma glucose and plasma insulin concentrations were measured prior to and after i.p. administration of glucose alone (18 mmol/kg body weight), or in combination with apelin analogues (25 nmol/kg body weight) in 18 h fasted mice fed a high-fat diet for 150 days. Values represent mean±SEM for eight mice (n=8). *P<0.05, **P<0.01 and ***P<0.001 compared to glucose alone. FIG. 6 illustrates effect of i.p. administration of glucose alone (18 mmol/kg body weight), ([…])apelin-13 and ([…])apelin-13 alone or in combination (each 25 nmol/kg body weight) on (A) blood glucose and (B) plasma insulin in 18 h fasted mice fed a high-fat diet for 150 days. Values represent mean±SEM for eight mice (n=8). *p<0.05 and **p<0.01 compared to glucose alone, ^+P<0.05 compared to ([…])apelin-13, ^∇P<0.05 and ^∇∇P<0.01 compared to ([…])apelin-13. FIG. 10 illustrates tests conducted 2 h after administration of apelin related analogues (25 nmol/kg body wt) in 18 h fasted mice fed a high-fat diet for 150 days. (A) Blood glucose and (B) plasma insulin was measured before and after i.p. administration of glucose (18 mmol/kg body wt) alone or in combination with apelin analogues. Values represent mean±SEM for eight mice (n=8). *P<0.05 and **P<0.01 compared to glucose alone. FIG. 11 illustrates tests conducted 8 h after administration of apelin related analogues (25 nmol/kg body wt) in 18 h fasted mice fed a high-fat diet for 150 days. (A) Blood glucose and (B) plasma insulin was measured before and after i.p. administration of glucose (18 mmol/kg body wt) alone or in combination with apelin analogues. Values represent mean±SEM for eight mice (n=8). *P<0.05 and **P<0.01 compared to glucose alone. FIG. 12 illustrates acute effects of fatty acid modified apelin analogues on glucose-lowering and insulin release in high fat fed Swiss NIH mice with dietary-induced diabetes. (A) Blood glucose and (B) plasma insulin concentrations were measured prior to and after i.p. administration of glucose alone (18 mmol/kg body weight), or in combination with apelin analogues (25 nmol/kg body weight) in 18 h fasted mice fed a high-fat diet for 150 days. Values represent mean±SEM for eight mice (n=8). *P<0.05, compared to glucose alone. FIG. 13 illustrates tests conducted 16 h after administration of fatty acid apelin analogues (25 nmol/kg body wt) in mice fed a high-fat diet for 150 days. (A) Blood glucose and (B) plasma insulin was measured before and after i.p. administration of glucose (18 mmol/kg body wt) alone or in combination with apelin analogues. Values represent mean±SEM for eight mice (n=8). *P<0.05, **P<0.01 and ***P<0.001 compared to glucose alone. NIH Swiss mice (Harlan UK Ltd., Blackthorne, UK) were derived from a nucleus colony obtained from the National Institute of Health, Bethesda, Md., USA. One group of mice were maintained on a standard rodent diet (10% fat, 30% protein, 60% carbohydrate; percent of total energy 12.99 kJ/g, Trouw Nutrition, Cheshire, UK) and used as a model of normal glycaemia. Other NIH Swiss mice were maintained on a high fat diet (45% fat, 20% protein, 35% carbohydrate; percent of total energy 26.15 […], UK) from 8 weeks of age for 150 days to produce a model of diet induced obesity-diabetes. […] All mice were housed in an air-conditioned room maintained at 22±2° C. with a 12 h light: 12 h dark cycle (08:00-20:00 h), were singly caged, and selected for experimental groups according to body weight and non-fasted blood glucose. Drinking water and diet were freely available. All animal studies were performed in accordance with the UK Animals (Scientific Procedures) Act 1986. For acute in vivo studies, blood samples were collected from the cut tip of the tail vain of fasted, conscious mice into fluoride/heparin coated glucose microcentrifuge tubes (Sarstedt, Germany) immediately prior to (t=0) and at 15, 30, 60 and 105 min following i.p. injection of glucose ([…]).

[3] = Degradation of apelin peptides by plasma from fasted normal NIH Swiss mice (rp-HPLC, MALDI-TOF MS); type: in vitro ADME
Method: Degradation of Apelin Peptides by Plasma from Fasted Normal NIH Swiss Mice […] The enzymatic reaction was stopped by adding 50 μl of 10% TFA (0.1% v/v; Sigma-Aldrich Ltd, (Poole, Dorset, UK) and frozen at -20° C. until separation. The terminated reaction products were then applied to an analytical Vydac C-8 column (4.6×150 mm; Phenomenex, Macclesfield, Cheshire, UK) for rp-HPLC analysis. The absorbance was monitored at 214 nm using a […] UV 2000 detector (Thermoquest Limited, Manchester, UK) and the traces were recorded by Thermo Electron ChromQuest data collection software (version 4). HPLC peak fractions were collected manually and subjected to MALDI-TOF mass spectrometry for peptide identification. Degradation profile of various apelin-13 related analogues: plasma incubations (4 h) were separated on a Vydac C-8 analytical HPLC column and all peaks were collected prior to analysis by MALDI-TOF mass spectrometry. Degradation fragments, actual molecular weights (Mr) and retention times (RT) are shown. Theoretical molecular weights of each fragment are shown in brackets. […] Degradation fragments, theoretical molecular weights (Mr) and retention times (RT) are shown. Theoretical molecular weights of each fragment are shown in brackets.

[4] = once daily 25 nmol/kg bw, 28 days
[5] = fatty acid derived agonists, 16 h delayed i.p. glucose tolerance test, 25 nmol/kg
[6] = fatty acid derived agonists, acute i.p. glucose tolerance test, 25 nmol/kg
[7] = NIH Swiss, mouse, plasma, pH 7.4
[8] = acute, peptide 25 nmol/kg i.p. with glucose 18 mmol/kg, Table 4
[9] = following a 2 h delay, 25 nmol/kg
[10] = following a 8 h delay, 25 nmol/kg

For `CCCCCCCCCCCCCCCC(=O)N[C@@H](CCC(=O)NCCCC[C@H](NC(=O)[C@H](Cc1c[nH]cn1)NC(=O)[C@H](CO)NC(=O)[C@H](CC(C)C)NC(=O)[C@H](CCCNC(=N)N)NC(=O)[C@@H]1CCCN1C(=O)[C@H](CCCNC(=N)N)NC(=O)[C@@H](N)CCC(N)=O)C(=O)NCC(=O)N1CCC[C@H]1C(=O)N[C@@H](CCSC)C(=O)N1CCC[C@H]1C(=O)N[C@@H](Cc1ccccc1)C(N)=O)C(=O)O` [(Lys^8GluPAL)apelin-13-amide], the Percentage fat mass ([1]; after 28 days, DEXA analysis) was 30.8%, the Insulin sensitivity ([1]; after 28 days, insulin 25 U/kg bw) was “significantly improved” and the “Glucose tolerance and plasma insulin excursion in response to an i.p and oral glucose challenge” value ([1]; after the 28 day treatment period) was “significantly improved”. The “HDL-cholesterol levels compared to the lean control and high fat fed mice” value ([1]; once daily) was “significantly increased”, the Bodyweight reduction [1, 4] was “approximately 4%” and the “Day of study at which bodyweight was significantly decreased” value [1, 4] was 21 days. The “Day of study at which circulating blood glucose began to be significantly reduced and plasma insulin increased” value [1, 4] was 10 days, the “Day of study at which food intake was significantly reduced” value [1, 4] was 8 days and the “LDL-cholesterol levels compared to the high fat fed controls” value ([1]; once daily, Friedewald equation) was “significantly lowered”. The Plasma triglyceride levels ([1]; once daily, high-fat fed mice) was “significantly lower”, the “Rank order on basis of anti-hyperglycaemic efficacy” value (“Rank order on basis” for short) ([2]; fatty acid derived agonists, 16 h delay) was 2 and the “Blood glucose as percent of glucose-alone control (lower = stronger glucose lowering)” value [2, 5] was 61% (**). For the same compound, the “Insulin secretion, where glucose alone = 100%” value [2, 5] was 156% (***), the “Rank order on basis” value ([2]; fatty acid derived agonists, acute) was 2 and the “Glucose lowering, where glucose alone = 100%” value [2, 6] was 85%. The “Insulin secretion, where glucose alone = 100%” value [2, 6] was 110%, the “Rank order of stability” value [3] was “=1” and the “Half-life (t1/2)” value ([3]; NIH Swiss, mouse, plasma, 263 µg/mL, pH 7.4) was >24 h. For the same compound, the half-life at 263 µg/mL [3, 7] was > 24 h and the remaining at 4 h, 263 µg/mL [3, 7] was 100%.

With `CSCC[C@H](NC(=O)[C@@H]1CCCN1C(=O)CNC(=O)[C@H](CCCCN)NC(=O)[C@H](Cc1c[nH]cn1)NC(=O)[C@H](CO)NC(=O)[C@H](CC(C)C)NC(=O)[C@H](CCCNC(=N)N)NC(=O)[C@@H]1CCCN1C(=O)[C@H](CCCNC(=N)N)NC(=O)[C@@H]1CCC(=O)N1)C(=O)N1CCC[C@H]1C(=O)N[C@@H](Cc1ccc(O)cc1)C(=O)O` [pGlu(Tyr^13)apelin-13, pGlu (Tyr^13)apelin-13] the “Rank order on basis” value ([2]; acute, Table 4) was 3, the “Blood glucose as percent of glucose-alone control (lower = stronger glucose lowering)” value [2, 8] was 71% (*) and the “Insulin secretion, where glucose alone = 100%” value [2, 8] was 138% (**). The “Rank order on basis” value ([2]; following a 2 h delay) was 3, the “Blood glucose as percent of glucose-alone control (lower = stronger glucose lowering)” value [2, 9] was 78% (**) and the “Insulin secretion, where glucose alone = 100%” value [2, 9] was 142% (**). The “Rank order on basis” value ([2]; following a 8 h delay) was 2, the “Blood glucose as percent of glucose-alone control (lower = stronger glucose lowering)” value [2, 10] was 86% (*) and the “Insulin secretion, where glucose alone = 100%” value [2, 10] was 112%. For the same compound, the “Degradation fragment, Peak 1” value [3] was “(1-5)”, the “Degradation fragment, Peak 2” value [3] was “(1-6)” and the “Degradation fragment, Peak 3” value [3] was “(1-12)”. The “Rank order of stability” value [3] was 4, the half-life at 263 µg/mL [3, 7] was 12.2 h and the remaining at 4 h, 263 µg/mL [3, 7] was 79 ± 0.6%.

With `CSCC[C@H](NC(=O)[C@@H]1CCCN1C(=O)CNC(=O)[C@H](CCCCN)NC(=O)[C@H](Cc1c[nH]cn1)NC(=O)[C@H](CO)NC(=O)[C@H](CC(C)C)NC(=O)[C@H](CCCNC(=N)N)NC(=O)[C@@H]1CCCN1C(=O)[C@H](CCCNC(=N)N)NC(=O)[C@@H]1CCC(=O)N1)C(=O)N1CCC[C@H]1C(=O)N[C@H](C(=O)O)C(C)C` [pGlu(Val^13)apelin-13, pGlu (Val^13)apelin-13] the “Rank order on basis” value ([2]; acute, Table 4) was 8, the “Blood glucose as percent of glucose-alone control (lower = stronger glucose lowering)” value [2, 8] was 116% (*) and the “Insulin secretion, where glucose alone = 100%” value [2, 8] was 75% (**). For the same compound, the “Degradation fragment, Peak 1” value [3] was “(1-6)”, the “Degradation fragment, Peak 2” value [3] was “(1-12)” and the “Rank order of stability” value [3] was 9. The half-life at 263 µg/mL [3, 7] was 9.8 h and the remaining at 4 h, 263 µg/mL [3, 7] was 76.2 ± 1.9%.
